Test [1] deals with CGRP receptor (Homo sapiens, UniProt O60894+Q16602). Kind of test: Affinity for human CGRP receptor ([125I]h-CGRPα competition, CHO cell membranes). The settings on record: 0.03 nM [125I]h-CGRPα; Cheng Prusoff; read-out: Ki of the affinity determination to human CGRP receptor. The format is binding. Also on record: host or cells: CHO-K1. As to the method:
The cell membrane homogenate of CHO cells expressing human CGRP receptor (comprising 16 μg of protein) was incubated with 0.03 nM [^125I]h-CGRPα and gradiently diluted test samples in buffer (50 mM Hepes-NaOH (pH 7.4), 10 mM MgCl2, 4 mM KCl, 10 mM […], 1 mM EDTA, 1 μM phosphorylation amide, 0.3% BSA and 0.04% bacitracin) at 22° C. for 90 minutes. A control group without the test sample was set up to obtain the highest binding signal of the experiment, and the non-specific binding of the experiment was determined by adding 1 μM non-isotope-labeled h-CGRPα to the control group. After the incubation, a glass fiber filter (GF/B, Packard) soaked with 0.3% PEI was placed in a 96-well cell collector (Unfilter, Packard), and the sample was quickly filtered under vacuum and rinsed several times with precooled buffer comprising 50 mM Tris-HCl and 150 mM NaCl. After the filter was dried, scintillation fluid (Microscint 0, Packard) was added and the radioactive signal value was measured using a scintillation counter (Topcount, Packard). The results are expressed as the percentage of inhibition of specific binding of the radioligand. Non-isotope labeled h-CGRPα was used as a standard sample as a control. The test samples and standard samples were tested at multiple concentrations to obtain a competition curve with [^125I]h-CGRPα, thereby calculating the IC50) 20 of each sample. The inhibition constant Ki was further calculated using the Cheng Prusoff equation: Ki=IC50/(1+L/KD), wherein L represents the concentration of [^125I]h-CGRPα in the system (0.03 nM), and KD represents the dissociation constant between [^125I]h-CGRPα and the human CORP receptor in the system (0.06 nM).

The test system of test [2] is Cynomolgus monkey blood flow. As to the kind of experiment: Capsaicin-induced Cynomolgus monkey blood flow model. The format is in vivo, Cynomolgus monkeys. As to conditions: N = 3. As to the method: In the capsaicin-induced Cynomolgus monkey blood flow model, the inhibitory effect of the compounds of the present application on cynomolgus monkey blood flow was evaluated.
In Example 1A and Example 3A, 100% polyethylene glycol 400 was used as the vehicle.
Experimental animals: male cynomolgus monkeys, with a body weight range of 3.2 kg to 5.80 kg during the administration period, purchased from Guangxi Xiongsen Primate Experimental Animal Breeding and Development Co., Ltd., production license: SCXK (Gui) 2016-0003; experimental animal quality certificate number: NO. 0002942.
Housing conditions: animals were kept in stainless steel cages by a single cage feeding method. The cage specifications are length×width×height=1 m×1 m×0.8 m. Before anesthesia with zoletil, the animals need to be fasted (but not water). The rest of the time, the animals were fed once in the morning and afternoon, about 100 g each time for one animal, supplemented with fresh fruits. The temperature of the animal room was set at 18-26° C., the humidity was 40-70%, and the lighting was alternating between light and dark for 12 hours.
After adaptive feeding, 10 cynomolgus monkeys were randomly selected, and the basal values were recorded using a moorFLPI-2 laser speckle blood flowmeter before capsaicin stimulation. After capsaicin stimulation, blood flow was tested again, and animals with an area under the time-blood flow rate curve (AUC)≥1000 (min·%) and small individual differences were selected to enter this experiment.
The blank vehicle control group was given 100% polyethylene glycol 400, and the drug administration group was given high and low doses of Example 1A and Example 3A (dissolved in 100% polyethylene glycol 400), respectively.
Note: Bolus is a large-dose push injection; Infusion is a small-dose continuous infusion.
Blood flow detection: all animals were given capsaicin once on the day of administration, and blood flow was detected at 0 min (before capsaicin administration), 5 min, 10 min, 15 min, 20 min and 30 min after capsaicin administration to monitor blood flow changes during this period. After the experiment ended that day, washout was carried out at intervals of 7-10 days, during which the experimental animals were rotated in turn. This type of experiment was repeated three times to obtain the average value of each group of data.
The blood flow change rate, AUC (area under the blood flow change rate-time curve) and blood flow inhibition rate were calculated using Excel.

Where [3] appears, read: 5 min after capsaicin, 0.3 μg/kg + 0.03 μg/kg/min.
Setting [4] is: 5 min after capsaicin, 1 μg/kg + 0.1 μg/kg/min.
Setting [5] is: 10 min after capsaicin, 0.3 μg/kg + 0.03 μg/kg/min.
[6] abbreviates: 10 min after capsaicin, 1 μg/kg + 0.1 μg/kg/min.
Setting [7] is: 15 min after capsaicin, 0.3 μg/kg + 0.03 μg/kg/min.
The mark [8] stands for this setting: 15 min after capsaicin, 1 μg/kg + 0.1 μg/kg/min.
Where [9] appears, read: 20 min after capsaicin, 0.3 μg/kg + 0.03 μg/kg/min.
[10] abbreviates: 20 min after capsaicin, 1 μg/kg + 0.1 μg/kg/min.
Setting [11] is: 30 min after capsaicin, 0.3 μg/kg + 0.03 μg/kg/min.
[12] abbreviates: 30 min after capsaicin, 1 μg/kg + 0.1 μg/kg/min.

In general, Ki refers to the dissociation constant of the complex between target and ligand, obtained from inhibition or displacement. As for `C[C@@H]1[C@H](c2c(F)ccc(F)c2F)C[C@H](NC(=O)c2cc3c(s2)C[C@]2(C3)C(=O)Nc3ncccc32)C(=O)N1CC(F)(F)F` [Example 3A, (S)—N-((3S,5S,6R)-6-methyl-2-oxo-1-(2,2,2-trifluoroethyl)-5-(2,3,6-trifluorophenyl)piperidin-3-yl)-2′-oxo-1′,2′,4,6-tetrahydrospiro[cyclopenta[b]thiophene-5,3′-pyrrolo[2,3-b]pyridine]-2-carboxamide], the Ki in test [1] is 0.019 nM. Also, the “AUC (area under the blood flow change rate-time curve)” value stood at 1481 %-min in test [2] (0.3 μg/kg + 0.03 μg/kg/min) and 395 %-min in test [2] (1 μg/kg + 0.1 μg/kg/min). In addition, the “Blood flow change rate” value in test [2] (setting [3]) is given as 69%; in test [2] (setting [4]), 27%; in test [2] (setting [5]), 71%; in test [2] (setting [6]) it was 35%; in test [2] (setting [7]) it was 69%; in test [2] (setting [8]) it was 25%. Moreover, the “Blood flow change rate” value is reported as 48% in test [2] (setting [9]), 3% in test [2] (setting [10]), 49% in test [2] (setting [11]) and 1% in test [2] (setting [12]).
On to `C[C@@H]1[C@H](c2c(F)ccc(F)c2F)C[C@H](NC(=O)c2cc3c(o2)CC[C@]2(C3)C(=O)Nc3ncccc32)C(=O)N1CC(F)(F)F` [Example 1A, (R)—N-((3S,5S,6R)-6-methyl-2-oxo-1-(2,2,2-trifluoroethyl)-5-(2,3,6-trifluorophenyl)piperidin-3-yl)-2′-oxo-1′,2′,6,7-tetrahydro-4H-spiro[benzofuran-5,3′-pyrrolo[2,3-b]pyridine]-2-carboxamide], for which the Ki in test [1] was found to be 0.017 nM. In addition, the “AUC (area under the blood flow change rate-time curve)” value in test [2] (0.3 μg/kg + 0.03 μg/kg/min) is given as 454 %-min; in test [2] (1 μg/kg + 0.1 μg/kg/min), 198 %-min. Moreover, the “Blood flow change rate” value in test [2] (setting [3]) was found to be 26%; in test [2] (setting [4]) it was 12%; in test [2] (setting [5]), 37%; in test [2] (setting [6]), 21%; in test [2] (setting [7]), 26%; in test [2] (setting [8]), 5%. The “Blood flow change rate” value in test [2] (setting [9]) was 12%; in test [2] (setting [10]), 9%; in test [2] (setting [11]), −4%; in test [2] (setting [12]), −6%.
For the compound `C[C@@H]1[C@H](c2c(F)ccc(F)c2F)C[C@H](NC(=O)c2cnc3c(c2)C[C@@]2(C3)C(=O)Nc3ncccc32)C(=O)N1CC(F)(F)F` [Atogepant, reference compound], the Ki in test [1] was found to be 0.0098 nM.

Values taken from patent US20250353860A1, “PIPERIDINE CARBOXAMIDE AZAINDANE DERIVATIVE, METHOD FOR PREPARING SAME, AND USE THEREOF” (BRISE PHARMACEUTICALS CO., LTD., priority 2022, published 2025).
